Results as given in patent US10827969B2, “Breath test device and method” (EXALENZ BIOSCIENCE LTD., priority 2005, dated 2020).

Key:
[1] = parameters: species or system subject; conditions: in vivo
Source text: One of the most common methods for determining the rate of metabolism of methacetin is to analyze the rate of metabolism of the methoxy group (CH3O) of methacetin to carbon dioxide, which is excreted in exhaled breath. To distinguish the carbon dioxide derived from methacetin from all other sources of carbon dioxide, the methoxy group is labeled with ^13C, a stable isotope of carbon. Thus, all the CO2 derived from methacetin will contain ^13C (^13CO2) in contrast to all other sources of CO2, which will contain approximately 99%^12C, and 1% ^13C, the naturally abundant isotope. Thus, the rate of excretion of ^13CO2 (normalized to ^12CO2) above background following the administration of methacetin-methoxy-^13C indicates its rate of metabolism, which relates to the hepatic cell “health” and to the functional mass of the liver.
The curve depicts the rate of metabolism of ^13C-Methacetin in % dose/hour as measured in breath. The peak of the curve (marked by the arrow) appears after 0.4 h (hours). The PDR peak height is approximately at 23.5% dose/hour.
The following are two examples that illustrate this phenomenon. […]

[2] = Two weeks stability of methacetin formulations (HPLC assay, appearance); assay type: physicochemical; conditions: 37-38 mg/100 mL methanol, room temperature, at least one week
Method: In the first three items, formulations containing 75 mg methacetin/200 mL solvent were prepared: 2-1. Formulation-1: 76.04 mg methacetin; 62.94 mg SLS; water to final volume of 200 mL. 2-2. Formulation-2: 75.87 mg methacetin; 4 mL PPG-400; water to final volume of 200 mL. 2-3. Formulation-3: 76.66 mg methacetin; 4 mL tween-80; water to final volume of 200 mL. The first three formulated solutions were stored at room temperature protected from light. The fourth solution was stored in an incubator for 3 months at 40° C. On each testing interval, the formulated samples were analyzed according to the following method: [table] The samples were diluted to a concentration of about 37 ppm (37 mg in 1000 ml) and analyzed against a standard solution at the same concentration. The standard was provided by the sponsor (Adrich 428264 batch: UI 2335). Purity of 100% was used in calculations. The methacetin sample that was used for the formulations was also used as a standard for the HPLC determination. […] The stock solution was diluted ×10 in mobile phase solution before the HPLC analysis. The assay was conducted according to Analyst SOP No. 05-001-03, and the HPLC method that was provided by the sponsor.

[3] = Conditions for dissolving methacetin: dissolving time; assay type: physicochemical; conditions: room temperature (approximately 25° C.)
Method: It was evaluated whether the thermal cycle for dissolving the API (active pharmaceutical ingredient, such as methacetin) can be eliminated from or at least lowered in the process. Cold vortexing, as well as the assistance of excipients acceptable by the international pharmaceutical regulations and capable of assisting in improving the dissolution of the API, were utilized.
Experimentation trials were performed, in order to eliminate the heating stage while dissolving the API (methacetin) in purified water.
Therefore, alternative directions for improving the API dissolution were tried. Solvents capable of dissolving the API and approvable for utilization in pharmaceutical preparations were utilized for this task.
30% by volume of the purified water of the preparation was replaced by the alternative solvent. The dissolving time of each preparation was recorded.
Therefore, a gradient of temperature was utilized to completely dissolve the methacetin in the preparation. An in-process control testing was applied at this stage. A UV specific absorbance analytical method, without further manipulation of the sample, was utilized for confirming that the solid has been completely dissolved in the preparation.

[4] = Decomposition of methacetin on heating in solution; assay type: physicochemical; conditions: heating at 80° C. for three hours
Method: There is thus provided, according to some embodiments, a method of controlled dissolution of methacetin. Methacetin seems to be stable after short term warming to <80° C. in solution. […] Therefore, according to an embodiment of the invention, a solution of methacetin may be prepared by dissolution in warm water.

[5] = as known in the art; cited from earlier work

SMILES | PDR peak height [1] [% dose/hour] | time of appearance of the PDR peak [1] [h] | stability of methacetin stock solution [2] | dissolution in water [3] | methacetin decomposed [4] [%] | hepatic extraction ratio [5]
CC(=O)Nc1ccc(O[13CH3])cc1 [^13C-Methacetin, methacetin-methoxy-^13C] | ~23.5 | 0.4 |  |  |  | 
COc1ccc(NC(C)=O)cc1 [methacetin, N-(4-Methoxyphenyl)acetamide] |  |  | stable | does not dissolve well | 0.018 | more than 0.8
